# Results as given in patent US20240018161A1, “MODULATORS OF CYSTIC FIBROSIS TRANSMEMBRANE CONDUCTANCE REGULATOR” (VERTEX PHARMACEUTICALS INCORPORATED, priority 2020, published 2024).
# pEC50: −log10 of the molar value.
# Target: CFTR-mediated chloride transport in human intestinal epithelial enteroid cells (Homo sapiens, UniProt P13569)
# Assay: Membrane potential dye, Enteroid Assay A
# Assay type: cell-based
# Conditions: for pEC50: enteroid cells incubated with test compound 18-24 hours, acute 10 μM forskolin and 300 nM N-[2,4-bis(1,1-dimethylethyl)-5-hydroxyphenyl]-1,4-dihydro-4-oxoquinoline-3-carboxamide, read-out: Ent. A EC50; for Ent. A Max Activity (%): percentage of chloride transport of triple combination control (3 μM N-[(6-amino-2-pyridyl)sulfonyl]-6-(3-fluoro-5-isobutoxy-phenyl)-2-[(4S)-2,2,4-trimethylpyrrolidin-1-yl]pyridine-3-carboxamide based)
# Outline: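 Membrane potential dye (20 μM methyl oxonol, with 30 μM CaCCinh-A01 and 30 μM Chicago Sky Blue) loaded 25 min at room temperature into ROCK-inhibitor-seeded human enteroid cells. Chloride-free stimulation buffer triggered transport, followed by 15 min fluorescence. % Activity relative to 3 μM/3 μM/300 nM triple-combination control.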
# CFTR-mediated chloride transport in human intestinal epithelial enteroid cells, sequence (P13569 with tags, fused parts or gaps DEL508-508): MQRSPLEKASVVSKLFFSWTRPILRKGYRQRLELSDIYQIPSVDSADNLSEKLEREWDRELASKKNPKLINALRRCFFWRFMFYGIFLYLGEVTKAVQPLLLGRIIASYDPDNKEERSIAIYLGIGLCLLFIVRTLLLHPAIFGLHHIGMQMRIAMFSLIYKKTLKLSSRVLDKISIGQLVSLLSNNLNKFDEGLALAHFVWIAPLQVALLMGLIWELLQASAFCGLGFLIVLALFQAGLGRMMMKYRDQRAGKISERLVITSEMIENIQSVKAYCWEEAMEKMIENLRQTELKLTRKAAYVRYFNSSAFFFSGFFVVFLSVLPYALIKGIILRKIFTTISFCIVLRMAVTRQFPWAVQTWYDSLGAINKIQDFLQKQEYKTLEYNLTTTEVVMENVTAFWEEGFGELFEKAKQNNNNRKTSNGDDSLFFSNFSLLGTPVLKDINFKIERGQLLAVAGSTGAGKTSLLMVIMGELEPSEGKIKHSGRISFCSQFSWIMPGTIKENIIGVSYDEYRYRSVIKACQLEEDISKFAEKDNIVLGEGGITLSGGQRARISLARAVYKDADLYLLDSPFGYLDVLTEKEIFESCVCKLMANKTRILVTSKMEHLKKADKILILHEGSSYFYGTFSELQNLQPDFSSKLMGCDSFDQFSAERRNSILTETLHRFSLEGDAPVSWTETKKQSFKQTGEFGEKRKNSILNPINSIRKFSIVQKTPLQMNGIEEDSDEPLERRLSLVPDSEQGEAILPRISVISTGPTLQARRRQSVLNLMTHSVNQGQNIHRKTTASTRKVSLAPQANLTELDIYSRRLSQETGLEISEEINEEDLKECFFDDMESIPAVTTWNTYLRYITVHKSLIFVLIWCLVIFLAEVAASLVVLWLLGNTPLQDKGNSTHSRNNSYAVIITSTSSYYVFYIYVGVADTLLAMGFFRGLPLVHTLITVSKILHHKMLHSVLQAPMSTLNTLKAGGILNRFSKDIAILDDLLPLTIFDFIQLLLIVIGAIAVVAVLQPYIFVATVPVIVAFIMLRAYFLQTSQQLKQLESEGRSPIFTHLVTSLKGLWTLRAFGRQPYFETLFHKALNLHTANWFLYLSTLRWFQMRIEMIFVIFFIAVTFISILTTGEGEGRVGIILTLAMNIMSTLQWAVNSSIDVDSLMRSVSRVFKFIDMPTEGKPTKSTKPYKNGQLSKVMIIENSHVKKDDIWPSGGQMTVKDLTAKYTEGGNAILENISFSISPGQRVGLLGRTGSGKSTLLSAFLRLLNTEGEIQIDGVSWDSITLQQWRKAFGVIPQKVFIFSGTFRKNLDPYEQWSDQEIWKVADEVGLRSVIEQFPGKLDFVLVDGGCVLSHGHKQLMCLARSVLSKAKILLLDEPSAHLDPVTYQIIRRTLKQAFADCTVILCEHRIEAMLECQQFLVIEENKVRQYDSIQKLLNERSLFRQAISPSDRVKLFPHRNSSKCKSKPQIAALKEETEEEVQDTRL
pEC50,SMILES,Ent. A Max Activity (%)
> 6.00,Cc1cccc(C)c1-c1cc2nc(n1)NS(=O)(=O)c1cccc(c1)C(=O)N1CCN(C(=O)CC3CCCCC3)C[C@@H]1CO2 [Compound 255],++ (++ is 30-60%)
> 6.00,Cc1cccc(C)c1-c1cc2nc(n1)NS(=O)(=O)c1cccc(c1)C(=O)N1CCN(CC3CCOC(C)(C)C3)C[C@@H]1CO2 (stereo partly shown) [Compound 256],+++ (+++ is >60%)
> 6.00,Cc1cccc(C)c1-c1cc2nc(n1)NS(=O)(=O)c1cccc(c1)C(=O)N1CCN(CC3(NC(=O)OC(C)(C)C)CCCC3)C[C@@H]1CO2 [Compound 257],+++ (+++ is >60%)
4.52 to 5.52,Cc1cccc(C)c1-c1cc2nc(n1)NS(=O)(=O)c1cccc(c1)C(=O)N1CCN(C(=O)N3CCCCC3)C[C@@H]1CO2 [Compound 258],++ (++ is 30-60%)
> 6.00,CCC(CC)CN1CCN2C(=O)c3cccc(c3)S(=O)(=O)Nc3nc(cc(-c4c(C)cccc4C)n3)OC[C@H]2C1 [Compound 259],+++ (+++ is >60%)
> 6.00,Cc1cccc(C)c1-c1cc2nc(n1)NS(=O)(=O)c1cccc(c1)C(=O)N1CCN(CC3CCCC3)C[C@@H]1CO2 [Compound 260],+++ (+++ is >60%)
–,Cc1cccc(C)c1-c1cc2nc(n1)NS(=O)(=O)c1cccc(c1)C(=O)N1CCN(CC3(C)COC3)C[C@@H]1CO2 [Compound 261],+ (+ is <300%)
4.52 to 5.52,Cc1cccc(C)c1-c1cc2nc(n1)NS(=O)(=O)c1cccc(c1)C(=O)N1CCN(CC3CC3)C[C@@H]1CO2 [Compound 262],+++ (+++ is >60%)
4.52 to 5.52,Cc1cccc(C)c1-c1cc2nc(n1)NS(=O)(=O)c1cccc(c1)C(=O)N1CCN(CCC3CCOCC3)C[C@@H]1CO2 [Compound 263],++ (++ is 30-60%)
–,Cc1cccc(C)c1-c1cc2nc(n1)NS(=O)(=O)c1cccc(c1)C(=O)N1CCN(Cc3cnn(C(C)C)c3)C[C@@H]1CO2 [Compound 264],++ (++ is 30-60%)
4.52 to 5.52,CNc1ccc(CN2CCN3C(=O)c4cccc(c4)S(=O)(=O)Nc4nc(cc(-c5c(C)cccc5C)n4)OC[C@H]3C2)cn1 [Compound 265],++ (++ is 30-60%)
4.52 to 5.52,Cc1cccc(C)c1-c1cc2nc(n1)NS(=O)(=O)c1cccc(c1)C(=O)N1CCN(Cc3ccccc3C#N)C[C@@H]1CO2 [Compound 266],+++ (+++ is >60%)
5.52 to 6.00,Cc1cccc(C)c1-c1cc2nc(n1)NS(=O)(=O)c1cccc(c1)C(=O)N1CCN(Cc3cccc(C#N)c3)C[C@@H]1CO2 [Compound 267],+++ (+++ is >60%)
5.52 to 6.00,Cc1cccc(C)c1-c1cc2nc(n1)NS(=O)(=O)c1cccc(c1)C(=O)N1CCN(CCC(C)C)C[C@@H]1CO2 [Compound 268],+++ (+++ is >60%)
> 6.00,Cc1cccc(C)c1-c1cc2nc(n1)NS(=O)(=O)c1cccc(c1)C(=O)N1CCN(CC(C)C)C[C@@H]1CO2 [Compound 269],+++ (+++ is >60%)
5.52 to 6.00,Cc1cccc(C)c1-c1cc2nc(n1)NS(=O)(=O)c1cccc(c1)C(=O)N1CCN(Cc3ccc(C#N)cc3)C[C@@H]1CO2 [Compound 270],+++ (+++ is >60%)
> 6.00,Cc1cccc(C)c1-c1cc2nc(n1)NS(=O)(=O)c1cccc(c1)C(=O)N1CCN(Cc3ccccc3O)C[C@@H]1CO2 [Compound 271],+++ (+++ is >60%)
4.52 to 5.52,Cc1cccc(C)c1-c1cc2nc(n1)NS(=O)(=O)c1cccc(c1)C(=O)N1CCN(Cc3cccc(O)c3)C[C@@H]1CO2 [Compound 272],+++ (+++ is >60%)
5.52 to 6.00,Cc1cccc(C)c1-c1cc2nc(n1)NS(=O)(=O)c1cccc(c1)C(=O)N1CCN(Cc3ccc(O)cc3)C[C@@H]1CO2 [Compound 273],++ (++ is 30-60%)
4.52 to 5.52,Cc1ccc(CN2CCN3C(=O)c4cccc(c4)S(=O)(=O)Nc4nc(cc(-c5c(C)cccc5C)n4)OC[C@H]3C2)cn1 [Compound 274],+++ (+++ is >60%)
4.52 to 5.52,Cc1cccc(C)c1-c1cc2nc(n1)NS(=O)(=O)c1cccc(c1)C(=O)N1CCN(Cc3nccs3)C[C@@H]1CO2 [Compound 275],+++ (+++ is >60%)
–,Cc1cccc(C)c1-c1cc2nc(n1)NS(=O)(=O)c1cccc(c1)C(=O)N1CCN(Cc3cn(C)nc3C)C[C@@H]1CO2 [Compound 276],++ (++ is 30-60%)
–,Cc1cccc(C)c1-c1cc2nc(n1)NS(=O)(=O)c1cccc(c1)C(=O)N1CCN(Cc3ccc[nH]c3=O)C[C@@H]1CO2 [Compound 277],+ (+ is <300%)
–,Cc1cccc(C)c1-c1cc2nc(n1)NS(=O)(=O)c1cccc(c1)C(=O)N1CCN(Cc3cncn3C)C[C@@H]1CO2 [Compound 279],+ (+ is <300%)
–,Cc1cccc(C)c1-c1cc2nc(n1)NS(=O)(=O)c1cccc(c1)C(=O)N1CCN(Cc3ccncc3)C[C@@H]1CO2 [Compound 280],++ (++ is 30-60%)

pEC50,SMILES,Ent. A Max Activity (%)
–,Cc1cccc(C)c1-c1cc2nc(n1)NS(=O)(=O)c1cccc(c1)C(=O)N1CCN(Cc3ccccn3)C[C@@H]1CO2 [Compound 281],++ (++ is 30-60%)
4.52 to 5.52,Cc1cccc(C)c1-c1cc2nc(n1)NS(=O)(=O)c1cccc(c1)C(=O)N1CCN(Cc3cccnc3)C[C@@H]1CO2 [Compound 282],++ (++ is 30-60%)
–,Cc1cccc(C)c1-c1cc2nc(n1)NS(=O)(=O)c1cccc(c1)C(=O)N1CCN(Cc3cocn3)C[C@@H]1CO2 [Compound 283],++ (++ is 30-60%)
–,Cc1cccc(C)c1-c1cc2nc(n1)NS(=O)(=O)c1cccc(c1)C(=O)N1CCN(Cc3c[nH]cn3)C[C@@H]1CO2 [Compound 284],+ (+ is <300%)
–,Cc1cccc(C)c1-c1cc2nc(n1)NS(=O)(=O)c1cccc(c1)C(=O)N1CCN(Cc3ccn(C)n3)C[C@@H]1CO2 [Compound 285],++ (++ is 30-60%)
–,Cc1cccc(C)c1-c1cc2nc(n1)NS(=O)(=O)c1cccc(c1)C(=O)N1CCN(Cc3ncccn3)C[C@@H]1CO2 [Compound 286],+ (+ is <300%)
–,Cc1cccc(C)c1-c1cc2nc(n1)NS(=O)(=O)c1cccc(c1)C(=O)N1CCN(Cc3ccnnc3)C[C@@H]1CO2 [Compound 287],+ (+ is <300%)
–,Cc1cccc(C)c1-c1cc2nc(n1)NS(=O)(=O)c1cccc(c1)C(=O)N1CCN(Cc3ccn[nH]3)C[C@@H]1CO2 [Compound 288],+ (+ is <300%)
–,Cc1cccc(C)c1-c1cc2nc(n1)NS(=O)(=O)c1cccc(c1)C(=O)N1CCN(C(=O)NCc3ccccc3)C[C@@H]1CO2 [Compound 289],+ (+ is <300%)
5.52 to 6.00,Cc1cccc(C)c1-c1cc2nc(n1)NS(=O)(=O)c1cccc(c1)C(=O)N1CCN(C(=O)NC34CC5CC(CC(C5)C3)C4)C[C@@H]1CO2 [Compound 290],++ (++ is 30-60%)
–,Cc1cccc(C)c1-c1cc2nc(n1)NS(=O)(=O)c1cccc(c1)C(=O)N1CCN(C(=O)NC(C)(C)C)C[C@@H]1CO2 [Compound 291],+++ (+++ is >60%)
–,Cc1cccc(C)c1-c1cc2nc(n1)NS(=O)(=O)c1cccc(c1)C(=O)N1CCN(C(=O)NC(C)C(C)C)C[C@@H]1CO2 (stereo partly shown) [Compound 292],++ (++ is 30-60%)
4.52 to 5.52,CC(=O)NCCN1CCN2C(=O)c3cccc(c3)S(=O)(=O)Nc3nc(cc(-c4c(C)cccc4C)n3)OC[C@H]2C1 [Compound 294],++ (++ is 30-60%)
5.52 to 6.00,Cc1cccc(C)c1-c1cc2nc(n1)NS(=O)(=O)c1cccc(c1)C(=O)N1CCN(CC3CCOCC3)C[C@@H]1CO2 [Compound 295],+++ (+++ is >60%)
> 6.00,Cc1cccc(C)c1-c1cc2nc(n1)NS(=O)(=O)c1cccc(c1)C(=O)N1CCN(CCCC(C)(C)C)C[C@@H]1CO2 [Compound 296],+++ (+++ is >60%)
> 6.00,Cc1cccc(C)c1-c1cc2nc(n1)NS(=O)(=O)c1cccc(c1)C(=O)N1CCN(CC3CCCCC3)C[C@@H]1CO2 [Compound 297],+++ (+++ is >60%)
> 6.00,Cc1cccc(C)c1-c1cc2nc(n1)NS(=O)(=O)c1cccc(c1)C(=O)N1CCN(CCc3ccccc3)C[C@@H]1CO2 [Compound 299],++ (++ is 30-60%)
–,Cc1cccc(C)c1-c1cc2nc(n1)NS(=O)(=O)c1cccc(c1)C(=O)N1CCCC1CO2 (stereo not shown) [Compound 301],+ (+ is <300%)
–,Cc1cccc(C)c1-c1cc2nc(n1)NS(=O)(=O)c1cccc(c1)C(=O)N1CCN(C(=O)CCN3CCCC3)C(CO2)C1 (stereo not shown) [Compound 303],+ (+ is <300%)
–,Cc1cccc(C)c1-c1cc2nc(n1)NS(=O)(=O)c1cccc(c1)C(=O)N1CCN(C(=O)CC(C)(C)C)C(CO2)C1 (stereo not shown) [Compound 304],++ (++ is 30-60%)
–,Cc1cccc(C)c1-c1cc2nc(n1)NS(=O)(=O)c1cccc(c1)C(=O)N1CCN(C(=O)CN(C)C)CC1CO2 (stereo not shown) [Compound 305],+ (+ is <300%)
–,Cc1cccc(C)c1-c1cc2nc(n1)NS(=O)(=O)c1cccc(c1)C(=O)N1CCN(C(=O)CCN3CCCC3=O)CC1CO2 (stereo not shown) [Compound 306],+ (+ is <300%)
4.52 to 5.52,Cc1cccc(C)c1-c1cc2nc(n1)NS(=O)(=O)c1cccc(c1)C(=O)N1CCN(C(=O)CC(C)(C)C)CC1CO2 (stereo not shown) [Compound 307],++ (++ is 30-60%)
–,Cc1cccc(C)c1-c1cc2nc(n1)NS(=O)(=O)c1cccc(c1)C(=O)N1CCN(C(=O)CCN3CCCC3)CC1CO2 (stereo not shown) [Compound 308],+ (+ is <300%)
